In publication PMC9276671, “A first-in-human Phase I dose-escalation trial of the novel therapeutic peptide, ALM201, demonstrates a favourable safety profile in unselected patients with ovarian cancer and other advanced solid tumours” (British Journal of Cancer, 2022):
No end group written: not given here.

Assay: Plasma pharmacokinetics of ALM201 in Phase I patients (validated LC-MS/MS, Phoenix WinNonlin)
Details: human, plasma, sc; for Tmax: median; for Tmax / AUC(0-t) / Cmax: plasma LC-MS/MS; for AUC(0-t): AUC0-t; for AUC(0-t) / Cmax: Gmean (CV); for level at 0.25 h / level at 0.75 h / level at 1.5 h / level at 2 h / level at 3 h / level at 4 h / level at 5 h / level at 6 h / level at 0.5 h / level at 1 h / level at 3.5 h: Plasma concentration, geometric mean (CV%), LC-MS/MS; for level at 0.25 h: day 1 cycle 1, 0.25 h after dosing; for level at 0.75 h: day 1 cycle 1, 0.75 h after dosing; for level at 3 h: day 1 cycle 1, 3 h after dosing; for level at 4 h: day 1 cycle 1, 4 h after dosing; for level at 6 h: day 1 cycle 1, 6 h after dosing
[1] = 100 mg, 100 mg SC, day 1 cycle 1, n = 4
[2] = 100 mg, 100 mg SC, day 3 cycle 1, n = 4
[3] = 100 mg, 100 mg SC, day 18 cycle 1, n = 2, CV not calculated
[4] = 100 mg, 100 mg SC, day 18 cycle 2, n = 1
[5] = 160 mg, 160 mg SC, day 1 cycle 1, n = 3
[6] = 160 mg, 160 mg SC, day 3 cycle 1, n = 3
[7] = 160 mg, 160 mg SC, day 18 cycle 1, n = 3
[8] = 160 mg, 160 mg SC, day 18 cycle 2, n = 1
[9] = 200 mg, 200 mg SC, day 1 cycle 1, n = 4
[10] = 200 mg, 200 mg SC, day 3 cycle 1, n = 4
[11] = 200 mg, 200 mg SC, day 18 cycle 1, n = 3
[12] = 200 mg, 200 mg SC, day 18 cycle 4, n = 2, CV not calculated

Q: Which Tmax (80 mg, 80 mg SC, day 18 cycle 2, n = 1) does the source give for IRQQPRDPPTETLELEVSPDPAS [ALM201] here?
A: 3.5 h

Q: What about the AUC(0-t) [1] of the same sequence?
A: 6280 ng·h/mL

Q: And the AUC(0-t) [2]?
A: 8870 ng·h/mL

Q: What about the AUC(0-t) [3] of the same sequence?
A: 8100 ng·h/mL

Q: And the AUC(0-t) [4]?
A: 5930 ng·h/mL

Q: And the Cmax [1]?
A: 1810 ng/mL

Q: What about the Cmax [2] of the same sequence?
A: 2750 ng/mL

Q: What about the Cmax [3] of the same sequence?
A: 2330 ng/mL

Q: What about the Cmax [4] of the same sequence?
A: 1790 ng/mL

Q: And the level at 0.25 h (100 mg, 100 mg SC, n = 4)?
A: 492 ng/mL

Q: And the level at 0.75 h (100 mg, 100 mg SC, n = 4)?
A: 1220 ng/mL

Q: And the level at 1.5 h (100 mg, 100 mg SC, day 1 cycle 1, 1.5 h after dosing, n = 4)?
A: 1810 ng/mL

Q: And the level at 2 h (100 mg, 100 mg SC, day 1 cycle 1, 2 h after dosing, n = 4)?
A: 1590 ng/mL

Q: And the level at 3 h (100 mg, 100 mg SC, n = 4)?
A: 1150 ng/mL

Q: What about the level at 4 h (100 mg, 100 mg SC, n = 4) of the same sequence?
A: 922 ng/mL

Q: And the level at 5 h (100 mg, 100 mg SC, day 1 cycle 1, 5 h after dosing, n = 4, NQ value substituted with 100 ng/mL)?
A: 664 ng/mL

Q: And the level at 6 h (100 mg, 100 mg SC, n = 4, NQ value substituted with 100 ng/mL)?
A: 560 ng/mL

Q: What about the level at 0.5 h (100 mg, 100 mg SC, day 3 cycle 1, 0.5 h after dosing, n = 4) of the same sequence?
A: 1730 ng/mL

Q: What about the level at 1 h (100 mg, 100 mg SC, day 3 cycle 1, 1 h after dosing, n = 4) of the same sequence?
A: 2100 ng/mL

Q: What about the level at 1.5 h (100 mg, 100 mg SC, day 3 cycle 1, 1.5 h after dosing, n = 4) of the same sequence?
A: 2530 ng/mL

Q: And the level at 2 h (100 mg, 100 mg SC, day 3 cycle 1, 2 h after dosing, n = 4)?
A: 2400 ng/mL

Q: And the level at 3.5 h (100 mg, 100 mg SC, day 3 cycle 1, 3.5 h after dosing, n = 4)?
A: 1690 ng/mL

Q: And the level at 5 h (100 mg, 100 mg SC, day 3 cycle 1, 5 h after dosing, n = 4)?
A: 928 ng/mL

Q: And the level at 0.5 h (100 mg, 100 mg SC, day 18 cycle 1, 0.5 h after dosing, n = 2)?
A: 1890 ng/mL

Q: And the level at 1 h (100 mg, 100 mg SC, day 18 cycle 1, 1 h after dosing, n = 2)?
A: 1840 ng/mL

Q: What about the level at 1.5 h (100 mg, 100 mg SC, day 18 cycle 1, 1.5 h after dosing, n = 2) of the same sequence?
A: 2210 ng/mL

Q: And the level at 2 h (100 mg, 100 mg SC, day 18 cycle 1, 2 h after dosing, n = 2)?
A: 2130 ng/mL

Q: What about the level at 3.5 h (100 mg, 100 mg SC, day 18 cycle 1, 3.5 h after dosing, n = 2) of the same sequence?
A: 1490 ng/mL

Q: And the level at 5 h (100 mg, 100 mg SC, day 18 cycle 1, 5 h after dosing, n = 2)?
A: 961 ng/mL

Q: And the level at 0.5 h (100 mg, 100 mg SC, day 18 cycle 2, 0.5 h after dosing, n = 1)?
A: 1060 ng/mL

Q: And the level at 1 h (100 mg, 100 mg SC, day 18 cycle 2, 1 h after dosing, n = 1)?
A: 1790 ng/mL

Q: And the level at 1.5 h (100 mg, 100 mg SC, day 18 cycle 2, 1.5 h after dosing, n = 1)?
A: 1710 ng/mL

Q: What about the level at 2 h (100 mg, 100 mg SC, day 18 cycle 2, 2 h after dosing, n = 1) of the same sequence?
A: 1570 ng/mL

Q: And the level at 3.5 h (100 mg, 100 mg SC, day 18 cycle 2, 3.5 h after dosing, n = 1)?
A: 1180 ng/mL

Q: And the Tmax [1]?
A: 1.5 h

Q: And the Tmax [2]?
A: 1.61 h

Q: And the Tmax (100 mg, 100 mg SC, day 18 cycle 1, n = 2)?
A: 1.9 h

Q: And the Tmax [4]?
A: 1.02 h

Q: And the AUC(0-t) [5]?
A: 6510 ng·h/mL

Q: What about the AUC(0-t) [6] of the same sequence?
A: 5100 ng·h/mL

Q: And the AUC(0-t) [7]?
A: 4930 ng·h/mL

Q: What about the AUC(0-t) [8] of the same sequence?
A: 5710 ng·h/mL

Q: And the Cmax [5]?
A: 1990 ng/mL

Q: What about the Cmax [6] of the same sequence?
A: 1490 ng/mL

Q: And the Cmax [7]?
A: 1350 ng/mL

Q: What about the Cmax [8] of the same sequence?
A: 1870 ng/mL

Q: And the level at 0.25 h (160 mg, 160 mg SC, n = 3)?
A: 833 ng/mL

Q: And the level at 0.75 h (160 mg, 160 mg SC, n = 3)?
A: 1570 ng/mL

Q: What about the level at 1.5 h (160 mg, 160 mg SC, day 1 cycle 1, 1.5 h after dosing, n = 3) of the same sequence?
A: 1670 ng/mL

Q: And the level at 2 h (160 mg, 160 mg SC, day 1 cycle 1, 2 h after dosing, n = 3)?
A: 1480 ng/mL

Q: What about the level at 3 h (160 mg, 160 mg SC, n = 3) of the same sequence?
A: 1280 ng/mL

Q: And the level at 4 h (160 mg, 160 mg SC, n = 3)?
A: 866 ng/mL

Q: And the level at 5 h (160 mg, 160 mg SC, day 1 cycle 1, 5 h after dosing, n = 3)?
A: 510 ng/mL

Q: What about the level at 6 h (160 mg, 160 mg SC, n = 3) of the same sequence?
A: 283 ng/mL

Q: What about the level at 0.5 h (160 mg, 160 mg SC, day 3 cycle 1, 0.5 h after dosing, n = 3) of the same sequence?
A: 956 ng/mL

Q: What about the level at 1 h (160 mg, 160 mg SC, day 3 cycle 1, 1 h after dosing, n = 3) of the same sequence?
A: 1270 ng/mL

Q: What about the level at 1.5 h (160 mg, 160 mg SC, day 3 cycle 1, 1.5 h after dosing, n = 3) of the same sequence?
A: 1460 ng/mL

Q: And the level at 2 h (160 mg, 160 mg SC, day 3 cycle 1, 2 h after dosing, n = 3)?
A: 1350 ng/mL

Q: What about the level at 3.5 h (160 mg, 160 mg SC, day 3 cycle 1, 3.5 h after dosing, n = 3) of the same sequence?
A: 926 ng/mL

Q: And the level at 5 h (160 mg, 160 mg SC, day 3 cycle 1, 5 h after dosing, n = 3)?
A: 613 ng/mL

Q: What about the level at 0.5 h (160 mg, 160 mg SC, day 18 cycle 1, 0.5 h after dosing, n = 3) of the same sequence?
A: 940 ng/mL

Q: What about the level at 1 h (160 mg, 160 mg SC, day 18 cycle 1, 1 h after dosing, n = 3) of the same sequence?
A: 1150 ng/mL

Q: And the level at 1.5 h (160 mg, 160 mg SC, day 18 cycle 1, 1.5 h after dosing, n = 3)?
A: 1280 ng/mL

Q: What about the level at 2 h (160 mg, 160 mg SC, day 18 cycle 1, 2 h after dosing, n = 3) of the same sequence?
A: 1200 ng/mL

Q: What about the level at 3.5 h (160 mg, 160 mg SC, day 18 cycle 1, 3.5 h after dosing, n = 3) of the same sequence?
A: 995 ng/mL

Q: What about the level at 5 h (160 mg, 160 mg SC, day 18 cycle 1, 5 h after dosing, n = 3) of the same sequence?
A: 577 ng/mL

Q: What about the level at 0.5 h (160 mg, 160 mg SC, day 18 cycle 2, 0.5 h after dosing, n = 1) of the same sequence?
A: 1380 ng/mL

Q: What about the level at 1 h (160 mg, 160 mg SC, day 18 cycle 2, 1 h after dosing, n = 1) of the same sequence?
A: 1380 ng/mL

Q: What about the level at 1.5 h (160 mg, 160 mg SC, day 18 cycle 2, 1.5 h after dosing, n = 1) of the same sequence?
A: 1650 ng/mL

Q: And the level at 2 h (160 mg, 160 mg SC, day 18 cycle 2, 2 h after dosing, n = 1)?
A: 1870 ng/mL

Q: What about the level at 3.5 h (160 mg, 160 mg SC, day 18 cycle 2, 3.5 h after dosing, n = 1) of the same sequence?
A: 870 ng/mL

Q: And the Tmax [5]?
A: 1.52 h

Q: And the Tmax [8]?
A: 2 h

Q: What about the AUC(0-t) [9] of the same sequence?
A: 5860 ng·h/mL

Q: What about the AUC(0-t) [10] of the same sequence?
A: 6630 ng·h/mL

Q: And the AUC(0-t) [11]?
A: 5570 ng·h/mL

Q: What about the AUC(0-t) [12] of the same sequence?
A: 6110 ng·h/mL

Q: And the Cmax [9]?
A: 1490 ng/mL

Q: What about the Cmax [10] of the same sequence?
A: 1620 ng/mL

Q: And the Cmax [11]?
A: 1670 ng/mL

Q: And the Cmax (200 mg, 200 mg SC, day 18 cycle 2, n = 2, CV not calculated)?
A: 1890 ng/mL

Q: And the Cmax [12]?
A: 1680 ng/mL

Q: And the level at 0.25 h (200 mg, 200 mg SC, n = 4)?
A: 479 ng/mL

Q: And the level at 0.75 h (200 mg, 200 mg SC, n = 4)?
A: 1040 ng/mL

Q: And the level at 1.5 h (200 mg, 200 mg SC, day 1 cycle 1, 1.5 h after dosing, n = 4)?
A: 1240 ng/mL

Q: What about the level at 2 h (200 mg, 200 mg SC, day 1 cycle 1, 2 h after dosing, n = 4) of the same sequence?
A: 1370 ng/mL

Q: What about the level at 3 h (200 mg, 200 mg SC, n = 4) of the same sequence?
A: 1360 ng/mL

Q: And the level at 4 h (200 mg, 200 mg SC, n = 4)?
A: 1050 ng/mL

Q: And the level at 5 h (200 mg, 200 mg SC, day 1 cycle 1, 5 h after dosing, n = 4)?
A: 620 ng/mL
